The results in this text go back to patent US8557552B2, “Selective neuronal nitric oxide synthase inhibitors” (Northwestern University, priority 2011, dated 2013).

Type in all cases: biochemical
One experiment has as its target bovine eNOS (Bos taurus, UniProt P29473). As to the kind of experiment: NOS enzyme inhibition assay, eNOS. Particulars: for Ki: bovine eNOS; for Selectivity n/e: ratio Ki eNOS to Ki nNOS.
The next experiment deals with rat nNOS (Rattus norvegicus, UniProt P29476). The experiment is described as follows: NOS enzyme inhibition assay, nNOS. Particulars: for Ki: rat nNOS.
rat nNOS, sequence (P29476 whole entry): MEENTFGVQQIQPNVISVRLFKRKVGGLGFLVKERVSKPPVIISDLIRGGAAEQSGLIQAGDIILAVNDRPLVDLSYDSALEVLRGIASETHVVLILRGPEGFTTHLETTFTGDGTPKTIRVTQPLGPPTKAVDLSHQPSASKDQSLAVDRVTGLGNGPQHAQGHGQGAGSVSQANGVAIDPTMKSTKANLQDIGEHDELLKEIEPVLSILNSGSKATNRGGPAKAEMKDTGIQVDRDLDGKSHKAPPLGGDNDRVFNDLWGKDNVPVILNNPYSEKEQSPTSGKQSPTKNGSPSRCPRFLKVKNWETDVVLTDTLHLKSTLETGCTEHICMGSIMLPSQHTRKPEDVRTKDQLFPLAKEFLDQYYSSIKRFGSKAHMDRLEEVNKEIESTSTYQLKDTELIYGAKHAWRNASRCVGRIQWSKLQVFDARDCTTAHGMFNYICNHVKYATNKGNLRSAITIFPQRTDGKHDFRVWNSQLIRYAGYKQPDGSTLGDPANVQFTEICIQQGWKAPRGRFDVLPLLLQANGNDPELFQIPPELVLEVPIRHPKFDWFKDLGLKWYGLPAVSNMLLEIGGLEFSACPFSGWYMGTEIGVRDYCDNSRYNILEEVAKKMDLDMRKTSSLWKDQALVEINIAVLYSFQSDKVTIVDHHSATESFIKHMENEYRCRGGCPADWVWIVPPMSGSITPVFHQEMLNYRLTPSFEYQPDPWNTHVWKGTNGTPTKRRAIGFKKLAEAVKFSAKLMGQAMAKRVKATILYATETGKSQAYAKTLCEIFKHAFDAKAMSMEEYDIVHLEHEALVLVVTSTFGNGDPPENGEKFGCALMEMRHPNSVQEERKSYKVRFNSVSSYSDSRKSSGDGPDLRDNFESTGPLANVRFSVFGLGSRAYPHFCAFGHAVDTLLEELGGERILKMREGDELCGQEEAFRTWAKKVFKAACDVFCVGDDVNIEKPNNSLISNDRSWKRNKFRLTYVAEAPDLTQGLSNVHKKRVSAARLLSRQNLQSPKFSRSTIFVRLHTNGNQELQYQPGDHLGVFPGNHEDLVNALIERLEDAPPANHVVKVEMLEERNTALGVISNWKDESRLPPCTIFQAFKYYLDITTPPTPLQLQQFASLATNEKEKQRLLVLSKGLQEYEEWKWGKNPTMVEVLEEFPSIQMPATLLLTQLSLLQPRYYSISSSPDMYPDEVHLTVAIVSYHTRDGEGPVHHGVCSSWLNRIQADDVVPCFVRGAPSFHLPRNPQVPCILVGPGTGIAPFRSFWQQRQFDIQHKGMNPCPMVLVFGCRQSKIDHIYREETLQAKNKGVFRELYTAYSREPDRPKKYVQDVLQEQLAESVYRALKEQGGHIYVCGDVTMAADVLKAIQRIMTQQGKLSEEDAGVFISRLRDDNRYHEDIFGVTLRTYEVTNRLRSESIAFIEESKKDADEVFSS
The next experiment has as its target murine iNOS (Mus musculus, UniProt P29477). As to the kind of experiment: NOS enzyme inhibition assay, iNOS. The note with it: for Selectivity n/i: ratio Ki iNOS to Ki nNOS.
[1] abbreviates: KM 1.7 μM, Ki = IC50/(1 + [S]/KM), Table 2.
[2] abbreviates: KM 1.3 μM, Ki = IC50/(1 + [S]/KM), Table 2.
Setting [3] is: murine iNOS, KM 8.2 μM, Ki = IC50/(1 + [S]/KM), Table 2.

bovine eNOS, sequence (P29473 whole entry): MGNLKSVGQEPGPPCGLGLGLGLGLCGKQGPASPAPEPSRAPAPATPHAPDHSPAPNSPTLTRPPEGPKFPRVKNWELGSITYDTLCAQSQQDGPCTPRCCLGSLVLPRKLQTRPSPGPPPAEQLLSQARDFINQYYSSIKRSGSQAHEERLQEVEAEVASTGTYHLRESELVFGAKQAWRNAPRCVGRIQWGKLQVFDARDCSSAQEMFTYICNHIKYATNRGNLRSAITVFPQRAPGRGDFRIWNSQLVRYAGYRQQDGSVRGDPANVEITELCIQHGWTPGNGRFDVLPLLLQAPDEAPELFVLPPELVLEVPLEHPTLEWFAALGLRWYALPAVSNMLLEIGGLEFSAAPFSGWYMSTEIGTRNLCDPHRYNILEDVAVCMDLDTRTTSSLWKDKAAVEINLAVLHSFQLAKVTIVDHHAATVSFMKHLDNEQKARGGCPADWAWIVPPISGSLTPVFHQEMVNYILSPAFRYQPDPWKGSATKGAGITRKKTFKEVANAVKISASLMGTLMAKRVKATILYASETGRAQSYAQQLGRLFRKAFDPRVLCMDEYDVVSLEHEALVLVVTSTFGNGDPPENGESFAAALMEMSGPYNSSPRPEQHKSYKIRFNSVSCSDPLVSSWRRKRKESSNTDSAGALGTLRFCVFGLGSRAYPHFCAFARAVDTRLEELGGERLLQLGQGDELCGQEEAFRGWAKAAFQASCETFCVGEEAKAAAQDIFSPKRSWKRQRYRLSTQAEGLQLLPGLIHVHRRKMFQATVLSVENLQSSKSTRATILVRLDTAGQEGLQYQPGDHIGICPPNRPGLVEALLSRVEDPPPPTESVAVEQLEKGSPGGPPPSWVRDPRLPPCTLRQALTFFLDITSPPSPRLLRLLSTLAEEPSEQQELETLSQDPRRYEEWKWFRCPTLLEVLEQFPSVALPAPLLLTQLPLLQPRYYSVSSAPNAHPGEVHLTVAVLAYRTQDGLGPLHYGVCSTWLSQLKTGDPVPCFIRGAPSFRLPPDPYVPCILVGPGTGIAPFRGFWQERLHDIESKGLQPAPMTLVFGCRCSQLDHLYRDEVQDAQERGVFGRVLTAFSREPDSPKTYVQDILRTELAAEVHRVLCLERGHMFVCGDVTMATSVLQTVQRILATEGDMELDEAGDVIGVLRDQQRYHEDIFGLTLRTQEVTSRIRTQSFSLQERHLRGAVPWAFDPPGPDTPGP

The Ki is the equilibrium dissociation constant of an inhibitor or competing ligand from its target. With `Cc1cc(N)nc(C[C@@H]2CNC[C@@H]2OCCCOc2ccc(F)c(C(F)(F)F)c2)c1` [25a], the Ki on bovine eNOS (in vitro, Table 1) stood at 5.06 µM; on rat nNOS (in vitro, Table 1) it was 2.49 µM; at murine iNOS (in vitro, Table 1), 14.6 µM. In addition, the Selectivity n/e at bovine eNOS (Table 1) amounted to 2.0. Besides, the Selectivity n/i on murine iNOS (Table 1) came out at 5.8.

`Cc1cc(N)nc(C[C@H]2CNC[C@H]2OCCC/C=C/c2cccc(F)c2)c1.Cl.Cl` [HH005]: the “n/e, ratio of Ki (eNOS) to nNOS” value on bovine eNOS (Table 2) was found to be 4. Besides, the inhibition constant Ki amounted to 69 µM on bovine eNOS (setting [1]), 15.4 µM at rat nNOS (setting [2]) and 134 µM on murine iNOS (setting [3]). In addition, on murine iNOS (Table 2), the “n/i, ratio of Ki (iNOS) to nNOS” value amounted to 9.

Turning to `Cc1ccnc(CCCCO[C@H]2CNC[C@H]2Cc2cc(C)cc(N)n2)c1` [22b], the Ki was found to be 25.5 µM at bovine eNOS (in vitro, Table 1); 1.08 µM at rat nNOS (in vitro, Table 1); 17.9 µM on murine iNOS (in vitro, Table 1). The Selectivity n/e on bovine eNOS (Table 1) was found to be 23.6. Further, the Selectivity n/i at murine iNOS (Table 1) is 16.5.

Regarding `Cc1cc(N)nc(C[C@@H]2CNC[C@@H]2OCCCCCc2cccc(N)c2)c1` [HH008, 6-(((3R,4R)-4-((5-(3-aminophenyl)pentyl)oxy)pyrrolidin-3-yl)methyl)-4-methylpyridin-2-amine], the “n/e, ratio of Ki (eNOS) to nNOS” value at bovine eNOS (Table 2) is reported as 1117. In addition, the “n/i, ratio of Ki (iNOS) to nNOS” value at murine iNOS (Table 2) was 619.

Take `Cc1cc(N)nc(C[C@@H]2CNC[C@@H]2OCCCCCc2cc(F)cc(Cl)c2)c1` [HH002, 6-(((3R,4R)-4-((5-(3-chloro-5-fluorophenyl)pentyl)oxy)pyrrolidin-3-yl)methyl)-4-methylpyridin-2-amine]: the “n/e, ratio of Ki (eNOS) to nNOS” value at bovine eNOS (Table 2) came out at 155. Also, the inhibition constant Ki is 35.6 µM on bovine eNOS (setting [1]), 0.23 µM at rat nNOS (setting [2]) and 106 µM at murine iNOS (setting [3]). Also, the “n/i, ratio of Ki (iNOS) to nNOS” value on murine iNOS (Table 2) was 461.

With `Cc1cc(N)nc(C[C@@H]2CNC[C@@H]2OCCCCCc2cccc(F)c2)c1.Cl.Cl` [HH001], the “n/e, ratio of Ki (eNOS) to nNOS” value on bovine eNOS (Table 2) turned out to be 37. Moreover, the Ki on bovine eNOS (setting [1]) was 33.8 µM; at rat nNOS (setting [2]) it was 0.922 µM; on murine iNOS (setting [3]) it was 83.8 µM. Moreover, the “n/i, ratio of Ki (iNOS) to nNOS” value at murine iNOS (Table 2) was 91.

As for `Cc1cc(N)nc(C[C@@H]2CNC[C@@H]2OCCCCc2ccccn2)c1` [22a], the inhibition constant Ki on bovine eNOS (in vitro, Table 1) came out at 15.9 µM; at rat nNOS (in vitro, Table 1) it was 2.34 µM; at murine iNOS (in vitro, Table 1) it was 12.5 µM. In addition, the Selectivity n/e at bovine eNOS (Table 1) is 6.8. Moreover, the Selectivity n/i at murine iNOS (Table 1) was found to be 5.4.

For `COc1ccnc(/C=C/CCO[C@H]2CNC[C@H]2Cc2cc(C)cc(N)n2)c1` [compound 23], the Ki on bovine eNOS (in vitro, Table 1) was determined as 2.22 µM; on rat nNOS (in vitro, Table 1) it was 0.351 µM; at murine iNOS (in vitro, Table 1), 2.48 µM. Besides, the Selectivity n/e on bovine eNOS (Table 1) was 6.3. The Selectivity n/i at murine iNOS (Table 1) amounted to 7.1.

Regarding `Cc1cc(N)nc(C[C@@H]2CNC[C@@H]2OCCCCOc2cc(F)cc(F)c2)c1.Cl.Cl` [Ji22], the “n/e, ratio of Ki (eNOS) to nNOS” value on bovine eNOS (Table 2) stood at 122. Further, the Ki on bovine eNOS (setting [1]) was 146 µM; at rat nNOS (setting [2]) it was 1.2 µM; on murine iNOS (setting [3]) it was 38.1 µM. The “n/i, ratio of Ki (iNOS) to nNOS” value on murine iNOS (Table 2) was 32.

For `Cc1cc(N)nc(C[C@@H]2CNC[C@@H]2OCCCCOc2cc(F)cc(Cl)c2)c1.Cl.Cl` [Ji23], the “n/e, ratio of Ki (eNOS) to nNOS” value at bovine eNOS (Table 2) is recorded as 37. Moreover, the inhibition constant (Ki) stood at 4.37 µM on bovine eNOS (setting [1]), 0.117 µM at rat nNOS (setting [2]) and 12.4 µM at murine iNOS (setting [3]). In addition, the “n/i, ratio of Ki (iNOS) to nNOS” value on murine iNOS (Table 2) is 106.

As for `Cc1cc(N)nc(C[C@@H]2CNC[C@@H]2OCCCCNc2ccccn2)c1.Cl.Cl.Cl` [Ji20], the “n/e, ratio of Ki (eNOS) to nNOS” value at bovine eNOS (Table 2) is reported as 154. Moreover, the Ki at bovine eNOS (setting [1]) amounted to 1.39 µM; on rat nNOS (setting [2]), 0.009 µM; on murine iNOS (setting [3]), 0.491 µM. Further, the “nNOS selectivity over eNOS compared with Ji19” value on bovine eNOS (comment on Table 2) was “lower nNOS selectivity over eNOS”. The “nNOS potency compared with Ji19” value at rat nNOS (comment on Table 2) is reported as “higher nNOS potency”. Also, the “n/i, ratio of Ki (iNOS) to nNOS” value at murine iNOS (Table 2) worked out at 54.

Consider `Cc1cc(N)nc(C[C@@H]2CNC[C@@H]2OCCCOc2cc(F)cc(Cl)c2)c1` [25d], for which the inhibition constant (Ki) was determined as 9.02 µM on bovine eNOS (in vitro, Table 1); 0.453 µM on rat nNOS (in vitro, Table 1); 41.1 µM at murine iNOS (in vitro, Table 1). The Selectivity n/e on bovine eNOS (Table 1) stood at 19.9. Besides, the Selectivity n/i on murine iNOS (Table 1) was 90.6.

Consider `COc1ccnc(CCCCO[C@H]2CNC[C@H]2Cc2cc(C)cc(N)n2)c1` [22c], for which the Ki was 5.47 µM at bovine eNOS (in vitro, Table 1); 0.174 µM on rat nNOS (in vitro, Table 1); 5.44 µM at murine iNOS (in vitro, Table 1). Besides, the Selectivity n/e at bovine eNOS (Table 1) is on record as 31.5. Also, the Selectivity n/i at murine iNOS (Table 1) is 31.3.

Turning to `Cc1cc(N)nc(C[C@@H]2CNC[C@@H]2OCCCOc2cc(F)cc(C(F)(F)F)c2)c1` [25c], the inhibition constant Ki on bovine eNOS (in vitro, Table 1) was 5 µM; at rat nNOS (in vitro, Table 1) it was 1.67 µM; on murine iNOS (in vitro, Table 1), 32.4 µM. In addition, the Selectivity n/e at bovine eNOS (Table 1) amounted to 3.0. Moreover, on murine iNOS (Table 1), the Selectivity n/i turned out to be 19.3.

On to `Cc1cc(N)nc(C[C@H]2CNC[C@H]2OCCCCCc2cccc(F)c2)c1.Cl.Cl` [HH004], for which the “n/e, ratio of Ki (eNOS) to nNOS” value at bovine eNOS (Table 2) was 4. Further, the Ki on bovine eNOS (setting [1]) was 34 µM; at rat nNOS (setting [2]), 9.06 µM; on murine iNOS (setting [3]), 468 µM. Besides, the “n/i, ratio of Ki (iNOS) to nNOS” value at murine iNOS (Table 2) was 52.

For the compound `Cc1cc(N)nc(C[C@@H]2CNC[C@@H]2OCCC/C=C/c2cccc(F)c2)c1` [HH003, 6-(((3R,4R)-4-(((E)-5-(3-fluorophenyl)pent-4-en-1-yl)oxy)pyrrolidin-3-yl)methyl)-4-methylpyridin-2-amine], at bovine eNOS (Table 2), the “n/e, ratio of Ki (eNOS) to nNOS” value was 121. The values for the Ki on bovine eNOS (setting [1]), at rat nNOS (setting [2]) and on murine iNOS (setting [3]) were 77 µM, 0.637 µM and 35.1 µM, respectively. In addition, the “n/i, ratio of Ki (iNOS) to nNOS” value on murine iNOS (Table 2) amounted to 55.

For `Cc1cc(N)nc(C[C@@H]2CNC[C@@H]2OCCCOc2cc(C(F)(F)F)cc(C(F)(F)F)c2)c1` [25f], the inhibitory constant (Ki) on bovine eNOS (in vitro, Table 1) was 2.68 µM; at rat nNOS (in vitro, Table 1), 0.516 µM; at murine iNOS (in vitro, Table 1), 12.2 µM. For the same compound, the Selectivity n/e on bovine eNOS (Table 1) was found to be 5.2. In addition, the Selectivity n/i at murine iNOS (Table 1) worked out at 23.7.

Consider `Cc1cc(N)nc(C[C@@H]2CNC[C@@H]2OCCCOc2ccc(F)c(Cl)c2)c1` [25b], for which the Ki on bovine eNOS (in vitro, Table 1) was determined as 10.5 µM; at rat nNOS (in vitro, Table 1) it was 3.34 µM; on murine iNOS (in vitro, Table 1), 18.5 µM. Further, at bovine eNOS (Table 1), the Selectivity n/e turned out to be 3.1. In addition, at murine iNOS (Table 1), the Selectivity n/i was determined as 5.5.

Take `Cc1cc(N)nc(C[C@@H]2CNC[C@@H]2OCCCOc2cc(Cl)cc(C(F)(F)F)c2)c1` [25e]: the Ki on bovine eNOS (in vitro, Table 1) stood at 1.38 µM; at rat nNOS (in vitro, Table 1), 0.931 µM; at murine iNOS (in vitro, Table 1), 25.6 µM. For the same compound, the Selectivity n/e at bovine eNOS (Table 1) amounted to 1.5. In addition, the Selectivity n/i on murine iNOS (Table 1) came to 27.5.

On to `Cc1cc(N)nc(C[C@H]2CNC[C@H]2OCCCCNc2ccccn2)c1.Cl.Cl.Cl` [Ji21], for which the “n/e, ratio of Ki (eNOS) to nNOS” value at bovine eNOS (Table 2) is reported as 157. The Ki at bovine eNOS (setting [1]) amounted to 5.67 µM; at rat nNOS (setting [2]) it was 0.036 µM; at murine iNOS (setting [3]), 0.973 µM. The “n/i, ratio of Ki (iNOS) to nNOS” value on murine iNOS (Table 2) stood at 27.
